Results published in the NIST ThermoML archive (doi:10.1021/acs.jced.8b00666).
Numbers after ± are expanded uncertainties.

Conditions: Crystal; Heating/Cooling curves

Normal melting temperature [°C]	Structure (SMILES)
29.2 ± 0.21	O.O=P(O)(O)O.O=P(O)(O)O [phosphoric acid hemihydrate]
6.80 ± 0.2	C1CCCCC1 [cyclohexane]
